Test results as given in patent publication US20240189287A1, “PERIPHERALLY RESTRICTED CB1 RECEPTOR BLOCKERS AND USES THEREOF” (BIONANOSIM (BNS) LTD, priority 2021, published 2024).

System: P-gp (MDR1)
Test: MDR1-MDCK II cell permeation assay (bi-directional permeability, P-gp efflux)
Format: in vitro ADME
Settings: dog, MDCK-MDR1, pH 7.4; 2 μM, A to B, 2.5 hours
How it was run: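 Compounds at 2 μM (DMSO <1%) in HBSS with 10 mM Hepes, pH 7.4, were applied apically or basolaterally to MDR1-MDCKII monolayers. A-to-B and B-to-A transport was run in duplicate with or without 10 μM GF120918 for 2.5 h at 37° C, 5% CO2. Compounds were quantified by LC-MS/MS, and efflux ratios were determined.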

Question: Which Papp at 2.5 h, 2 μM does the source give for `O=S(=O)(NC1CCCOc2c1nn(-c1ccccc1Cl)c2-c1ccc(Cl)cc1)c1ccc(Cl)cc1` (stereo not shown) [BNS808, 4-chloro-N-[2-(2-chlorophenyl)-3-(4-chlorophenyl)-5,6,7,8-tetrahydrooxepino[3,2-c]pyrazol-8-yl]benzenesulfonamide] here?
Answer: 0.26 ×10⁻⁶ cm/s
